Key:
[1] = biological target: T1, Serine/threonine-protein kinase TAO3 (Homo sapiens) (UniProt Q9H2K8); experiment: Inhibition of human JIK at 18.6 nM by HotSpot assay relative to control
T1 sequence (whole entry): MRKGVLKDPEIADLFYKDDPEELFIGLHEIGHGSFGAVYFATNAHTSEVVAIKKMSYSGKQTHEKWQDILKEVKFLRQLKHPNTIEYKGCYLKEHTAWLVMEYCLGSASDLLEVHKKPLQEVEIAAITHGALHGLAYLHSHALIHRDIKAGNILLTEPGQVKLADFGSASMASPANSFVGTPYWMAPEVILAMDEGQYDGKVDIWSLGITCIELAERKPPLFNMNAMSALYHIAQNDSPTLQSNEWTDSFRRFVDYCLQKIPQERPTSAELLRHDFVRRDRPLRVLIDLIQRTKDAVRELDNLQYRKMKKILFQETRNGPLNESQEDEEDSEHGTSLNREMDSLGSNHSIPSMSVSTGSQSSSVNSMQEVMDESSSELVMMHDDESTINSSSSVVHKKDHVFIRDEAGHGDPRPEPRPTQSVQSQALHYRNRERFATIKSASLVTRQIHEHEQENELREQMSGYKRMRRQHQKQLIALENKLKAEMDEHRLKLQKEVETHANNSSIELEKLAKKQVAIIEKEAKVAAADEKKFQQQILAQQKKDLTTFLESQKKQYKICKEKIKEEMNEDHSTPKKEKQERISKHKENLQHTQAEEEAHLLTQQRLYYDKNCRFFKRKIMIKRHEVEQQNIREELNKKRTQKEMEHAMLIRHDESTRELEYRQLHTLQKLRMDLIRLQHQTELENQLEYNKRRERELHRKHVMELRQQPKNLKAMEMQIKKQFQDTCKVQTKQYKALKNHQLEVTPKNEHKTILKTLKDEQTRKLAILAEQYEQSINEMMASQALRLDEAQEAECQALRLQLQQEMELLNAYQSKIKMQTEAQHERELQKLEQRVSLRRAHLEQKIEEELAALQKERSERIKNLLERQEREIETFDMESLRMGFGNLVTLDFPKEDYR

[2] = biological target: T2, Serine/threonine-protein kinase VRK1 (Homo sapiens) (UniProt Q99986); experiment: Inhibition of human VRK1 at 18.6 nM by HotSpot assay relative to control
T2 sequence (whole entry): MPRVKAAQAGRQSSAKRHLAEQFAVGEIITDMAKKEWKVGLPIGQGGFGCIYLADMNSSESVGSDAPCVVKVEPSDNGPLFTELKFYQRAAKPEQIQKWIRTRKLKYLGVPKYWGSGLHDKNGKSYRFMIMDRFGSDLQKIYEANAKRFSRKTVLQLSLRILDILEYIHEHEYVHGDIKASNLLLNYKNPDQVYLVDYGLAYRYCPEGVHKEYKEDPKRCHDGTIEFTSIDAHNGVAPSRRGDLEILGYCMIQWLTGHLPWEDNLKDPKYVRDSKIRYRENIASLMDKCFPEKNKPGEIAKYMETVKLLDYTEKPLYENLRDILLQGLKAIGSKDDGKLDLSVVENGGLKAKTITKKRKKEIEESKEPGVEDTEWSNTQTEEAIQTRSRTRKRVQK

[3] = biological target: T3, Serine/threonine-protein kinase haspin (Homo sapiens) (UniProt Q8TF76); experiment: Inhibition of human Haspin at 18.6 nM by HotSpot assay relative to control
T3 sequence (whole entry): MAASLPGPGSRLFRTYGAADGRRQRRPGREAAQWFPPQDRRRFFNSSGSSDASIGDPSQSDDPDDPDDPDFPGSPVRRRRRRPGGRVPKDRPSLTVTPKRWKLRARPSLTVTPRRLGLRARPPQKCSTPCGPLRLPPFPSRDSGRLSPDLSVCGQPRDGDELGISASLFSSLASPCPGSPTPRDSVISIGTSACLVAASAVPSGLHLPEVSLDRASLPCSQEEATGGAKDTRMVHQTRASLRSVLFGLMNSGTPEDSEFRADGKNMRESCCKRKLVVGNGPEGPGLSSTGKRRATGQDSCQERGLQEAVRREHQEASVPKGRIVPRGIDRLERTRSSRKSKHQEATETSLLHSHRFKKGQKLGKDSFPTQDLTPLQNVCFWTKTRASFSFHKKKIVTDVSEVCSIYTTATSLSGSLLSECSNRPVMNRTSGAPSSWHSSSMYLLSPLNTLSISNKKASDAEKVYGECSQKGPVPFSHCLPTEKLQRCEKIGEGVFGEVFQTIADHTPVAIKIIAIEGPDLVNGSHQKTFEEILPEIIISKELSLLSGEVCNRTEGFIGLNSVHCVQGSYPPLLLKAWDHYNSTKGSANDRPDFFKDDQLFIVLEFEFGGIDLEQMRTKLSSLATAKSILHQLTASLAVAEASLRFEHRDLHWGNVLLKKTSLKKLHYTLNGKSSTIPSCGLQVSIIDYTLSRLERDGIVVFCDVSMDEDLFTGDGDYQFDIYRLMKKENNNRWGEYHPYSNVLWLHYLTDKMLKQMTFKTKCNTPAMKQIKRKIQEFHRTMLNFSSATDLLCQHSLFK

[4] = biological target: Macrophage-stimulating protein receptor (Homo sapiens) (UniProt Q04912); experiment: Inhibition of human MST1R at 1.82 nM by HotSpot assay relative to control
Macrophage-stimulating protein receptor (Homo sapiens), sequence (Q04912 25-304 limits assumed): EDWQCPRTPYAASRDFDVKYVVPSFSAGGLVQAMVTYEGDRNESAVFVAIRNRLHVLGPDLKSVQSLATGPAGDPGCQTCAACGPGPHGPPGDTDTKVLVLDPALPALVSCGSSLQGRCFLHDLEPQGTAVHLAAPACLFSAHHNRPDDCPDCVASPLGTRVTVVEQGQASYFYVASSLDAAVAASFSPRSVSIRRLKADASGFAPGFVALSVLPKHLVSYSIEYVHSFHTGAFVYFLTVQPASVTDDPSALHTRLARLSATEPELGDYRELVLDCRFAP
Macrophage-stimulating protein receptor (Homo sapiens), sequence (Q04912 310-1400 limits assumed): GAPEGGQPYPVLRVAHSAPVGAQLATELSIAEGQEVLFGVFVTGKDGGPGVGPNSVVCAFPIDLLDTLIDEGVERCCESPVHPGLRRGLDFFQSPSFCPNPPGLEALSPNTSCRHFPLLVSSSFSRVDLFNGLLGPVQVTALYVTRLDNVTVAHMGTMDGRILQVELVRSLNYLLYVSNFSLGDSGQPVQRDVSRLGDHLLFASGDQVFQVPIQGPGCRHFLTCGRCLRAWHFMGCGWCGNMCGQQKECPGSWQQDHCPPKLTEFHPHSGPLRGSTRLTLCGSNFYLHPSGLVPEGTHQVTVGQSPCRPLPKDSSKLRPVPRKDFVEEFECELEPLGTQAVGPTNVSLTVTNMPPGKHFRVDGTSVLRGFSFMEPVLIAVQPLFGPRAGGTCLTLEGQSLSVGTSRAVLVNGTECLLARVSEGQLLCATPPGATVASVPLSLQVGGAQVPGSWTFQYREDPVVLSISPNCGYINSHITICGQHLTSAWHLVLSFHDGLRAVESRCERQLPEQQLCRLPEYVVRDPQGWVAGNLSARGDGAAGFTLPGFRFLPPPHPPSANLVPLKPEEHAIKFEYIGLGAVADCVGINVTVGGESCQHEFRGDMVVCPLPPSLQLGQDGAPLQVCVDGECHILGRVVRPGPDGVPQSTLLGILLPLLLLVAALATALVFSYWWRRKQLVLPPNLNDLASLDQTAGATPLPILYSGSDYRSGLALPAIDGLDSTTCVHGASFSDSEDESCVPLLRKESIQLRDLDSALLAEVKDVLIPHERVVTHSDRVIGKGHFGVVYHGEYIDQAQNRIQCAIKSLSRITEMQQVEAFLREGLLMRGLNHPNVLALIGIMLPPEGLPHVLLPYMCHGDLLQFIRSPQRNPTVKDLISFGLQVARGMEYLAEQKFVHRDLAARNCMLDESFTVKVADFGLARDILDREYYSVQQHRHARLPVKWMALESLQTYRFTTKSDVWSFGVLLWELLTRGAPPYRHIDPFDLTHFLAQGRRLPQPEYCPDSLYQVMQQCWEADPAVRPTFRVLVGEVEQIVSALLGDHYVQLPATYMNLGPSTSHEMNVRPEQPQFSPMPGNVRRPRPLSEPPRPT

C[C@]1(O)C[C@@H](c2nc(-c3ccc4ccc(-c5ccccc5)nc4c3)c3c(N)nccn32)C1
inhibition [1]: 4.89%
inhibition [2]: -6.1%
inhibition [3]: -1.76%

C[C@@]1(C(=O)Nc2ccc(F)nc2)CCCN1c1nc(Nc2cc(C3CC3)n[nH]2)c2cccn2n1
inhibition [4]: 0.1%

— ChEMBL document CHEMBL5653615 (J Biol Chem, 2013)
